Test results from ChEMBL document CHEMBL4346752, “Discovery and evaluation of novel nitrodihydroimidazooxazoles as promising anti-tuberculosis agents” (Bioorg Med Chem Lett, 2019).
Converted amounts (≈) assume the structure as drawn.

Legend:
[1] = Cytotoxicity against African green monkey Vero cells assessed as reduction in cell viability incubated for 72 hrs by MTT assay; type: cell-based; conditions: chlorocebus sabaeus
[2] = test system: Mycobacterium tuberculosis; test: Antimycobacterial activity against Mycobacterium tuberculosis H37Rv assessed as reduction in bacterial cell growth incubated for 8 days measured under aerobic MABA conditions by alamar blue staining based assay; type: functional; conditions: 192 h
[3] = test system: Mycobacterium tuberculosis; test: Antimycobacterial activity against Mycobacterium tuberculosis H37Rv assessed as reduction in bacterial cell growth incubated for 11 days measured under anaerobic LORA condition by luminescence assay; type: functional; conditions: 264 h
[4] = Solubility of the compound in water at pH 2 by HPLC analysis; type: physicochemical
[5] = Solubility of the compound in water at pH 6.5 by HPLC analysis; type: physicochemical
[6] = Apparent permeability across apical to basolateral side in MDCK cells at […] incubated for 60 mins by HPLC analysis; type: ADME, cell-based, Canis lupus familiaris; conditions: dog; for Papp A→B at 1 h: MDCK
[7] = Apparent permeability across basolateral to apical side in MDCK cells at […] incubated for 60 mins by HPLC analysis; type: ADME, cell-based, Canis lupus familiaris; conditions: dog; for Papp B→A at 1 h: MDCK
[8] = Efflux ratio of apparent permeability across basolateral to apical over apical to basolateral side in MDCK cells at […] incubated for 60 mins by HPLC analysis; type: ADME, cell-based, Canis lupus familiaris; conditions: dog

For `C[C@]1(CN2CCc3nc(-c4ccc(F)c(F)c4)oc3C2)Cn2cc([N+](=O)[O-])nc2O1`, the CC50 at 72 h [1] was greater than 32 µg/mL.

Molecule `C[C@]1(CN2CCc3nc(-c4cc(F)ccc4F)ccc3C2)Cn2cc([N+](=O)[O-])nc2O1` has a CC50 at 72 h [1] greater than 32 µg/mL, an MIC [2] of 0.05 µg/mL (≈ 0.117 µM) and an MIC [3] of 5.14 µg/mL (≈ 12 µM).

In the case of `C[C@]1(CN2CCc3nc(-c4ccccc4)ccc3C2)Cn2cc([N+](=O)[O-])nc2O1`, the CC50 at 72 h [1] is reported as greater than 32 µg/mL, the solubility [4] is reported as 130 µM (≈ 50.7 µg/mL) and the solubility [5] is reported as 3.35 µM (≈ 1.31 µg/mL). It also gave a Papp A→B at 1 h [6] of 16.8 ×10⁻⁶ cm/s, a Papp B→A at 1 h [7] of 22.7 ×10⁻⁶ cm/s and an efflux ratio at 1 h ([8]; MDCK) of 1.35.

`C[C@]1(CN2CCc3oc(-c4ccc(F)cc4)nc3C2)Cn2cc([N+](=O)[O-])nc2O1` showed a CC50 at 72 h [1] greater than 32 µg/mL.

For `C[C@]1(CN2CCc3nc(-c4ccc(F)c(Cl)c4)ccc3C2)Cn2cc([N+](=O)[O-])nc2O1`, the CC50 at 72 h [1] was greater than 32 µg/mL, the MIC [2] was 0.03 µg/mL (≈ 0.0676 µM) and the MIC [3] was 3.82 µg/mL (≈ 8.61 µM).

Molecule `C[C@]1(CN2CCc3nc(-c4ccccc4F)ccc3C2)Cn2cc([N+](=O)[O-])nc2O1` has a CC50 at 72 h [1] greater than 32 µg/mL, an MIC [2] of 0.05 µg/mL (≈ 0.122 µM) and an MIC [3] of 5 µg/mL (≈ 12.2 µM).

Molecule `CO[C@H]1/C=C/O[C@@]2(C)Oc3c(C)c(O)c4c(O)c(c(/C=N/N5CCN(C)CC5)c(O)c4c3C2=O)NC(=O)/C(C)=C\C=C\[C@H](C)[C@H](O)[C@@H](C)[C@@H](O)[C@@H](C)[C@H](OC(C)=O)[C@@H]1C` [RIFAMPIN] has a CC50 at 72 h [1] greater than 32 µg/mL, an MIC [2] of 0.1 µg/mL (≈ 0.122 µM) and an MIC [3] of 0.72 µg/mL (≈ 0.875 µM).

`C[C@]1(CN2CCc3nc(-c4cc(F)cc(F)c4)ccc3C2)Cn2cc([N+](=O)[O-])nc2O1` showed a CC50 at 72 h [1] greater than 32 µg/mL, an MIC [2] of 0.03 µg/mL (≈ 0.0702 µM) and an MIC [3] of 1.64 µg/mL (≈ 3.84 µM).

`C[C@]1(CN2CCc3nc(-c4ccc(F)cc4F)ccc3C2)Cn2cc([N+](=O)[O-])nc2O1` showed a CC50 at 72 h [1] of 12.5 µg/mL (≈ 29.2 µM), an MIC [2] of 0.03 µg/mL (≈ 0.0702 µM) and an MIC [3] greater than 8 µg/mL.

For `C[C@]1(CN2CCc3nc(-c4ccc(C(F)(F)F)cc4)ccc3C2)Cn2cc([N+](=O)[O-])nc2O1`, the CC50 at 72 h [1] was greater than 32 µg/mL, the MIC [2] was 0.03 µg/mL (≈ 0.0653 µM) and the MIC [3] was greater than 8 µg/mL.

For `C[C@]1(CN2CCc3nc(-c4cc(Cl)ccc4F)ccc3C2)Cn2cc([N+](=O)[O-])nc2O1`, the CC50 at 72 h [1] was greater than 32 µg/mL, the MIC [2] was 0.04 µg/mL (≈ 0.0901 µM) and the MIC [3] was 8.79 µg/mL (≈ 19.8 µM).

`C[C@]1(COc2ccc(N3CCC(Oc4ccc(OC(F)(F)F)cc4)CC3)cc2)Cn2cc([N+](=O)[O-])nc2O1` gave an MIC [2] of less than 0.031 µg/mL, an MIC [3] of 1.23 µg/mL (≈ 2.3 µM) and a Papp A→B at 1 h [6] of 0.09 ×10⁻⁶ cm/s. It also gave a Papp B→A at 1 h [7] of 0.17 ×10⁻⁶ cm/s.

For `C[C@]1(CN2CCc3nc(-c4ccc(F)cc4)oc3C2)Cn2cc([N+](=O)[O-])nc2O1`, the CC50 at 72 h [1] was greater than 32 µg/mL.

`C[C@]1(CN2CCc3nc(-c4cccc(F)c4)ccc3C2)Cn2cc([N+](=O)[O-])nc2O1` gave a CC50 at 72 h [1] greater than 32 µg/mL, an MIC [2] of 0.02 µg/mL (≈ 0.0488 µM) and an MIC [3] of 6.5 µg/mL (≈ 15.9 µM).

For `C[C@]1(CN2CCc3nc(-c4cc(F)c(F)c(F)c4)ccc3C2)Cn2cc([N+](=O)[O-])nc2O1`, the CC50 at 72 h [1] was greater than 32 µg/mL, the MIC [2] was 0.08 µg/mL (≈ 0.18 µM) and the MIC [3] was 0.76 µg/mL (≈ 1.71 µM). It also gave a solubility [4] greater than 200 µM and a solubility [5] of less than 1 µM.

In the case of `C[C@]1(CN2CCc3nc(-c4cccc(Cl)c4F)ccc3C2)Cn2cc([N+](=O)[O-])nc2O1`, the CC50 at 72 h [1] is reported as greater than 32 µg/mL, the MIC [2] is reported as 0.03 µg/mL (≈ 0.0676 µM) and the MIC [3] is reported as 5.71 µg/mL (≈ 12.9 µM).

Molecule `C[C@]1(CN2CCc3nc(-c4ccc(F)c(F)c4)ccc3C2)Cn2cc([N+](=O)[O-])nc2O1` has a CC50 at 72 h [1] greater than 32 µg/mL, an MIC [2] of 0.03 µg/mL (≈ 0.0702 µM) and an MIC [3] of 3.88 µg/mL (≈ 9.08 µM).

`C[C@]1(CN2CCc3nc(-c4ccc(Cl)c(F)c4)ccc3C2)Cn2cc([N+](=O)[O-])nc2O1` showed a CC50 at 72 h [1] greater than 32 µg/mL, an MIC [2] of 0.03 µg/mL (≈ 0.0676 µM) and an MIC [3] of 3.79 µg/mL (≈ 8.54 µM).

In the case of `C[C@]1(CN2CCc3nc(-c4ccc(F)cc4)ccc3C2)Cn2cc([N+](=O)[O-])nc2O1`, the CC50 at 72 h [1] is reported as greater than 32 µg/mL, the MIC [2] is reported as less than 0.031 µg/mL and the MIC [3] is reported as 4.83 µg/mL (≈ 11.8 µM). It also gave a solubility [4] of 143 µM (≈ 58.7 µg/mL), a solubility [5] of 9.41 µM (≈ 3.85 µg/mL) and a Papp ([6]; mdck, 1 h, 100000 µM) of 20.92 ×10⁻⁶ cm/s. For the same molecule, the Papp ([7]; mdck, 1 h, 100000 µM) was 19.29 ×10⁻⁶ cm/s and the Ratio ([8]; mdck, 1 h, 100000 µM) was 1.09.

For `C[C@]1(CN2CCc3nc(-c4cccc(F)c4F)ccc3C2)Cn2cc([N+](=O)[O-])nc2O1`, the CC50 at 72 h [1] was greater than 32 µg/mL, the MIC [2] was 0.03 µg/mL (≈ 0.0702 µM) and the MIC [3] was 3.72 µg/mL (≈ 8.7 µM).

Work on `C[C@]1(CN2CCc3nc(C4CCCCC4)ccc3C2)Cn2cc([N+](=O)[O-])nc2O1` yielded an MIC [2] of 0.03 µg/mL (≈ 0.0755 µM) and an MIC [3] of 7.21 µg/mL (≈ 18.1 µM).

`C[C@]1(CN2CCc3nc(-c4cc(F)cc(Cl)c4)ccc3C2)Cn2cc([N+](=O)[O-])nc2O1` gave a CC50 at 72 h [1] greater than 32 µg/mL, an MIC [2] of 0.03 µg/mL (≈ 0.0676 µM) and an MIC [3] of 6.41 µg/mL (≈ 14.4 µM).

In the case of `C[C@]1(CN2CCc3nc(-c4ccc(F)cc4)sc3C2)Cn2cc([N+](=O)[O-])nc2O1`, the CC50 at 72 h [1] is reported as greater than 32 µg/mL.

With `C[C@]1(CN2CCc3nc(-c4ccc(Cl)cc4F)ccc3C2)Cn2cc([N+](=O)[O-])nc2O1` the CC50 at 72 h [1] was greater than 32 µg/mL, the MIC [2] was 0.03 µg/mL (≈ 0.0676 µM) and the MIC [3] was 5.28 µg/mL (≈ 11.9 µM).

Work on `C[C@]1(CN2CCc3nc(-c4cc(F)ccc4Cl)ccc3C2)Cn2cc([N+](=O)[O-])nc2O1` yielded a CC50 at 72 h [1] greater than 32 µg/mL, an MIC [2] of 0.15 µg/mL (≈ 0.338 µM) and an MIC [3] of 4.28 µg/mL (≈ 9.64 µM).
